{"source": "patent US10202604B2", "about": "“Methods of using microRNA-141” (Stemirna Therapeutics Co., Ltd., priority 2016, dated 2019)", "key": {"[1]": {"system": "CD44", "assay": "CD44 mRNA and protein levels in prostate cancer cells", "format": "cell-based, human", "settings": "bulk Du145 and PC3 cells or CD44+ Du145 cells", "procedure": "(§1) FIGS. 3A-3J show partial suppression of epithelial to mesenchymal transition by miR-141 and CD44 as a direct target of miR-141. FIGS. 3A-3B show qPCR analysis of epithelial to mesenchymal transition markers in bulk (FIG. 3A) or CD44^+ (FIG. 3B) Du145 cells transfected with the miR-141 oligos (30 nM; 48 h). Results were presented as the relative expression levels over the cells transfected with the NC oligos. […] GAPDH was used as control and the relative protein levels after normalizing to GAPDH and NC controls were indicated below each lane. […] Shown below is the actual sequence in the region with the mutated miR-141 binding sequence indicated in grey (below). […] Shown are representative images. […] Du145 cells were co-transfected with NC or miR-141 oligos (30 nM) together with pBabe empty vector or pBabe-CD44 vector. After 48 h, cells were harvested for invasion assays. Bars, mean±SD. *, P<0.05; **, P<0.01.\nTotal RNA was extracted using microRNA isolation kit (Life Technologies) according to the manufacturer's instructions. microRNA qPCRs were performed using TaqMan microRNA assays (Life Technologies). qPCR data for microRNAs were normalized to RNU48 whereas qPCR data for mRNAs were normalized to GAPDH."}, "[2]": {"system": "E-Cadherin and ZEB-1 in PC3 and Du145 cells", "assay": "Western blotting of E-Cadherin and ZEB-1", "format": "cell-based, human", "settings": "bulk Du145 and PC3 cells; 30 or 60 nM, 48 h", "procedure": "as §1"}, "[3]": {"system": "prostate cancer cells", "assay": "Cell death and senescence", "format": "cell-based", "settings": "miR-141 expression"}}, "data": [{"substance": "miR-141: miR-141 mirVana mimics (Life Technologies); microRNA-141 oligonucleotide may have SEQ ID NO: 1; in some experiments over-expressed by lentiviral vectors (UAACACUGUCUGGUAAAGAUGG; listed as RNA, further chemistry not given here) [miR-141 mirVana mimics (Life Technologies); in some experiments over-expressed by lentiviral vectors]", "values": [{"measurement": "CD44 mRNA level", "setting": "[1]", "value": "significantly reduced"}, {"measurement": "CD44 protein level", "setting": "[1]", "value": "significantly reduced"}, {"measurement": "E-cadherin (CDH1) protein level", "setting": "[2]", "value": "increased"}, {"measurement": "ZEB1 protein level", "setting": "[2]", "value": "reduced"}, {"measurement": "effects on cell death and senescence", "setting": "[3]", "value": "minimal effects"}]}]}
